Structures can show the parent of a compound that is named as a salt.
Assays:
[1] = system: Cdc7 (pS40MCM2 levels in HCT116 cells); experiment: Cdc7 Cell Pharmacodynamics Assay Method 2A: pS40MCM2 levels in HCT116 cells, 6 hours; format: cell-based; conditions: Homo sapiens, HCT-116, read-out: Biomarker Method 2A (pEC50) (converted)
Description: This protocol describes a method to investigate the inhibition of Cdc7 activity by measuring pS40MCM2 levels in cells, after treatment with compounds.
• HCT116 cells (ATCC, #CCL-247) • McCoys 5A with L-glutamine (Cellgro, #10-050-CV) • 10% FCS (Cellgro, #35-010-CV) • D-PBS without CaCl2 and MgCl2 (Cellgro, #21-031-CV) • Trypsin/EDTA (Cellgro, #25-052-CL) • BSA (Calbiochem, 126593) • Cell Extraction Buffer (Invitrogen FNN0011) • Protease inhibitor cocktail (Sigma P-2714) • PMSF 0.3M stock in DMSO (Sigma P7626) • Antibody-rabbit pMCM2 Ser40 (Abcam, AB133243) • Antibody-goat MCM2 (Bethyl #A300-122A) • Antibody-goat Anti Rabbit IgG HRP (Thermo, 31462) • SuperSignal ELISA Pico Chemiluminescent Substrate (Perbio Science UK Ltd 37069) • 10×PBS (Growcells, MRGF-6236) • Triton X100 (Sigma, P-T8787) • DMSO (Fisher, D128-1) • 2-Propanol (J. T. Baker, 9095-03) Method • Seed 1×10^6 HCT116 cells into each of two 175 cm^2 flask containing 30 mL Cell Growth Media and incubate at 37° C., 5% CO2 for 3 days. • Harvest the cells from one T175 cm^2 flask and count. • Dilute with Cell Growth Media to a cell density of 2×10^5. Dispense 100 μL to each well (20,000 HCT116 cells/well) of TC treated 96-well plate(s). • Allow cells to settle overnight in incubator set at 37° C. and 5% CO2. • Cell treatment: Transfer 0.25 μL/well from the compound plate to the wells of the cell plate(s). This is a 1:400 dilution of compound in the assay. • Once all cells are treated place the cells back to the incubator and incubate for either 6 hours (Method 2A) or 18 hours (Method 2B). • Dilute the capture antibody (total MCM2#A300-122A) 1 in 250 in the required volume of PBS (5 mL per assay plate, plus 5 mL for dead volume) and add 50 μL to each well of a Hybond plate except wells A12 & B12. Seal the plate and incubate at room temperature for a minimum of 2 hours. • Defrost aliquot of Invitrogen Cell Extraction Buffer (FNN0011) on ice and supplement with appropriate volume of both Sigma protease inhibitor cocktail (P-2714) and PMSF (final conc 1 mM from a 1 M stock in DMSO). • After the 6 hour or 18 hour cell treatment time, tap out the media from the assay plates and place them in the −70° C. freezer for at least 5 minutes. • Flick out the remaining liquid in the previously prepared capture Ab plate(s) and add 200 μL 2% BSA per well. Incubate for 1 hour at room temperature. • Remove plates from freezer and add 20 μL of ice cold complete lysis buffer. Incubate cells for 30 minutes at 4° C. • Add 30 μL per well 2% BSA • At the end of the 1 hour incubation, wash the Capture/ELISA plate(s) with Wash Buffer on the BioTek plate washer. • Transfer 40 μL per well of the lysis plate(s) to the same wells in the Capture/ELISA plate. Incubate cells overnight at 4° C. • At the end of the overnight incubation, wash the ELISA plate(s) with Wash Buffer on BioTek plate washer. • Prepare Detection Antibody Buffer and dispense 50 μL to all wells of ELISA plate(s) except wells G1 & H1. Cover plate and incubate at room temperature for 2 hours with gentle shaking. • At the end of the 2 hour incubation, wash the ELISA plate(s) with Wash Buffer on the BioTek plate washer. • Prepare the Conjugated Antibody Buffer and dispense 50 μL to all wells of ELISA plate(s). • Cover the plate and incubate at room temperature for 1 hour with gentle shaking. • At the end of the 1 hour incubation, wash the ELISA plate(s) with Wash Buffer on the BioTek plate washer. • Prepare Substrate Buffer and dispense 50 μL to all wells of ELISA plate(s). • Incubate for a minimum of 10 minutes and read plates on the EnVision 2100 Multilabel Reader (Mirror: Luminescence (404) & Luminescence 700 (212); Measurement Height: 6.5 mm; Measurement Time: 0.2 s). Method 3

Cdc7/ASK = Cdc7/ASK (Homo sapiens, UniProt O00311); experiment: Cdc7 Biochemical Assay Method 2: 384 well mobility shift assay (EZ Reader II), MCM2 peptide substrate; parameters: purchased; conditions: 12.5 μM ATP, read-out: Biochemical Method 2 (pIC50) (converted)
Protocol: This protocol describes a method for assaying Cdc7/ASK for activity. The assay is a 384 well mobility shift assay (MSA) run on the EZ Reader II microfluidics plate reader (Caliper LifeSciences), utilising a peptide substrate based on the MCM2 sequence. The assay technology is based on the change in mobility between the peptide substrate and the phosphorylated product. A 10 nL volume of the reaction mixture is sipped onto the microfluidic chip where the substrate and product are separated by electrophoresis and detected via laser-induced fluorescence (488 nm LED). The reaction can be monitored in real-time for kinetic experiments or as an end-point for IC50 determinations. The % conversion of substrate is calculated from peak heights of product (P) and substrate (S) peptides (% conversion=P/(P+S)*100).
• 10× Assay Buffer: 200 mM HEPES pH 8, 100 mM MgCl2, 0.1% v/v Triton X-100 and 15 mM DTT. Prepare fresh buffer from 1 M HEPES pH 8, 1 M MgCl2, 1 M DTT and 10% Triton x-100 stocks for each experiment. • Cdc7/ASK is purchased from commercial suppliers and used in the assay at a final assay concentration of 0.847 ng/μL or 9.2 nM. • MCM2 peptide is purchased from commercial suppliers and used in the assay at a final assay concentration of 2.5 μM. • ATP used in the assay at a final assay concentration of 12.5 μM. Methods • 1. Prepare intermediate (daughter) compound plate by transferring 2 μL of compound from the mother plate to 18 μL of 33.3% DMSO in a clear polypropylene plate. • 2. Dry-spot 1 μL of compound from the intermediate compound plate to empty assay plate. • 3. Add 5 μL of 1.694 ng/μL CDC7/ASK working solution to ‘test’ and ‘control’ wells or […] of 2× Assay Buffer to ‘blank’ wells. • 4. Add 4 μL 2.5 μM peptide/12.5 μM ATP working solution to all wells. • 5. Incubate at 37° C. for 1 hour then remove from the incubator and leave for a further 1 hour at room temperature. • 6. Place plate into an EZReader II to read.
Percentage inhibition values were calculated from % of substrate conversion values, using the no compound (DMSO) and no enzyme control values as 0% and 100% inhibition, respectively. IC50 determination was performed with ExcelFit software (IDBS) using curve fit 205. Z′ factors were determined for each plate tested and were all above 0.5.

Chain of Cdc7/ASK (O00311 whole entry): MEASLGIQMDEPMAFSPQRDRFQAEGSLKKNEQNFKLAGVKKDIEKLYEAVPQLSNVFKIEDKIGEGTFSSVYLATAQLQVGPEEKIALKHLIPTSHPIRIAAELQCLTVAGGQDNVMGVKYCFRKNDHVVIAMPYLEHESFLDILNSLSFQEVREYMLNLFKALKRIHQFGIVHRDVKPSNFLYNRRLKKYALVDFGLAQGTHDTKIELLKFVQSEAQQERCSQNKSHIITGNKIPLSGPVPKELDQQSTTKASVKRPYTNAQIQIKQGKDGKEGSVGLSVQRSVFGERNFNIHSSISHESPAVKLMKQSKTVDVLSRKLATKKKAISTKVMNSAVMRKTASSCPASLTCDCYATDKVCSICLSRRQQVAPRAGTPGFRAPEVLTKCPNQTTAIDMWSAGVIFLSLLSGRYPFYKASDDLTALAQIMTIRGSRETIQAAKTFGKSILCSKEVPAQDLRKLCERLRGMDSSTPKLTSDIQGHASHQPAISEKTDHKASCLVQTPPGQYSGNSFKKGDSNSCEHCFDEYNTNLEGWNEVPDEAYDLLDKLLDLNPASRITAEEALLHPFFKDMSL
Chain of Cdc7/ASK (Q9UBU7 whole entry partner): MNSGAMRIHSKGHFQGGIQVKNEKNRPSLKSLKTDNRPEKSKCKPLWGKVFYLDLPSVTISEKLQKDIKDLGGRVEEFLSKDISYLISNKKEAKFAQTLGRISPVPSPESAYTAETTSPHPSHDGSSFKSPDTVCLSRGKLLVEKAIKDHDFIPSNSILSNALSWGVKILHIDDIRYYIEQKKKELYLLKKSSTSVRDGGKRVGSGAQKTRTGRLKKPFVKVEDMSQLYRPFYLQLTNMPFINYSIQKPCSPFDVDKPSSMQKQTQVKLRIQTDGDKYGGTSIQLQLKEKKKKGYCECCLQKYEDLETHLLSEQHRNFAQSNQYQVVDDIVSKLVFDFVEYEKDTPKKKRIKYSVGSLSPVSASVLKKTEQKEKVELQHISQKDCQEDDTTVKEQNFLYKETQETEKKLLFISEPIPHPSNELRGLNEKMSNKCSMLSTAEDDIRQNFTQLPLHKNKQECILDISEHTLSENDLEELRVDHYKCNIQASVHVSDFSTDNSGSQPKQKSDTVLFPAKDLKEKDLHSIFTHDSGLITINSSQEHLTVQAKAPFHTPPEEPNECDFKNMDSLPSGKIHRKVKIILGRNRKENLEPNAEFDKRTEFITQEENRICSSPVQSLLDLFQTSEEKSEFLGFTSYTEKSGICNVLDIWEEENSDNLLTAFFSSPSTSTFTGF

Compound	EC50 [1]	IC50 (Cdc7/ASK)
O=c1[nH]c(-c2ccncc2)nc(N2CCN(CC(F)F)CC2)c1Cl [Compound 147]	427 nM	–
O=c1[nH]c(-c2ccncc2)nc(N2CCCOCC2)c1Cl [Compound 186]	–	3.89 nM
O=c1[nH]c(-c2ccnc(F)c2)nc(N2CCNCC(F)(F)C2)c1Cl [Compound 312, 5-chloro-4-(6,6-difluoro-1,4-diazepan-1-yl)-2-(2-fluoro-4-pyridyl)-1H-pyrimidin-6-one hydrochloride]	11.5 nM	–
O=c1[nH]c(-c2ccnc(F)c2)nc(N2CCOCC2)c1Cl [Compound 316]	44.7 nM	–
N[C@H]1CCCN(c2nc(-c3ccnc(F)c3)[nH]c(=O)c2Cl)C1 [Compound 317]	219 nM	1.02 nM
N[C@@H]1CCCN(c2nc(-c3ccnc(F)c3)[nH]c(=O)c2Cl)C1 [Compound 319]	126 nM	1.51 nM
C[C@@H]1CNCCN1c1nc(-c2ccnc(F)c2)[nH]c(=O)c1Cl [Compound 323]	12 nM	0.575 nM
O=c1[nH]c(-c2ccnc(F)c2)nc(N2CCNCC2)c1Cl [Compound 360]	83.2 nM	–
NC[C@H]1CCCN(c2nc(-c3ccnc(F)c3)[nH]c(=O)c2Cl)C1 [Compound 362]	–	0.741 nM
NC[C@@H]1CCCN(c2nc(-c3ccnc(F)c3)[nH]c(=O)c2Cl)C1 [Compound 363]	–	1.78 nM

More lines, now with the values ahead:

EC50 [1]	IC50 (Cdc7/ASK)	Compound
776 nM	–	C[C@H]1CN(c2nc(-c3ccncc3)[nH]c(=O)c2Cl)CCN1 [Compound 130]
851 nM	–	O=c1[nH]c(-c2ccncc2)nc(N2CCN[C@H](C(F)(F)F)C2)c1Cl [Compound 139]
21.9 nM	1.17 nM	CC(C)[C@H]1CN(c2nc(-c3ccnc(F)c3)[nH]c(=O)c2Cl)CCN1 [Compound 170]
37.2 nM	–	O=c1[nH]c(-c2ccncc2)nc(N2CCN[C@@H](C(F)(F)F)C2)c1Cl [Compound 180]
85.1 nM	0.776 nM	CC(C)(C)[C@H]1CN(c2nc(-c3ccncc3)[nH]c(=O)c2F)CCN1 [Compound 185]
–	0.912 nM	CC(C)[C@H]1CN(c2nc(-c3ccncc3)[nH]c(=O)c2F)CCN1 [Compound 308]
–	0.575 nM	O=c1[nH]c(-c2ccnc(F)c2)nc(N2CCN[C@@H](C(F)(F)F)C2)c1Cl [Compound 314]
26.9 nM	0.501 nM	C[C@@H]1CNCCN1c1nc(-c2ccncc2)[nH]c(=O)c1Cl [Compound 364]

Reference: patent publication US10919896B2, “Preparation and uses of pyrimidinone derivatives” (Cancer Research Technology Limited, priority 2016, dated 2021)
